Laboratory results from ChEMBL document CHEMBL3046001, “4-Thiazolidinone and 1-thia-3,4,9-triaza fluorene conjugates: synthesis, characterization and antimicrobial screening” (2013).
≈ marks a conversion by molar mass, not a printed value. Calls of active or inactive are those of the source. The calls are words filed in the database; no cut-off is given here.

How the values were obtained:
Bacillus subtilis [1] = assay: Antibacterial activity against Bacillus subtilis MTCC 441 assessed as growth inhibition after 24 hr by tube dilution method; format: functional; conditions: MTCC 441, 24 h
Bacillus subtilis [2] = assay: Antibacterial activity against Bacillus subtilis MTCC 441 assessed as growth inhibition at 1000 ug/mL after 48 hr by agar diffusion method; format: functional; conditions: MTCC 441, 48 h, read-out: DIZ
Micrococcus luteus [3] = assay: Antibacterial activity against Micrococcus luteus MTCC 1538 assessed as growth inhibition at 100 ug/mL after 48 hr by agar diffusion method; format: functional
Aspergillus niger [4] = assay: Antifungal activity against Aspergillus niger MTCC 2546 assessed as growth inhibition at 500 ug/mL after 48 hr by agar diffusion method; format: functional; conditions: MTCC 2546, 48 h, read-out: DIZ
Micrococcus luteus [5] = assay: Antibacterial activity against Micrococcus luteus MTCC 1538 assessed as growth inhibition at 750 ug/mL after 48 hr by agar diffusion method; format: functional; conditions: MTCC 1538, 48 h, read-out: DIZ
Bacillus pumilus [6] = assay: Antibacterial activity against Bacillus pumilus MTCC 1456 assessed as growth inhibition at 1000 ug/mL after 48 hr by agar diffusion method; format: functional; conditions: MTCC 1456, 48 h, read-out: DIZ
Aspergillus niger [7] = assay: Antifungal activity against Aspergillus niger MTCC 2546 assessed as growth inhibition at 750 ug/mL after 48 hr by agar diffusion method; format: functional; conditions: MTCC 2546, 48 h, read-out: DIZ
Pseudomonas fluorescens [8] = assay: Antibacterial activity against Pseudomonas fluorescens MTCC 2421 assessed as growth inhibition at 750 ug/mL after 48 hr by agar diffusion method; format: functional; conditions: MTCC 2421, 48 h, read-out: DIZ
Aspergillus niger [9] = assay: Antifungal activity against Aspergillus niger MTCC 2546 assessed as growth inhibition at 100 ug/mL after 48 hr by agar diffusion method; format: functional, organism-based
Bacillus pumilus [10] = assay: Antibacterial activity against Bacillus pumilus MTCC 1456 assessed as growth inhibition at 250 ug/mL after 48 hr by agar diffusion method; format: functional; conditions: MTCC 1456, 48 h, read-out: DIZ
Aspergillus niger [11] = assay: Antifungal activity against Aspergillus niger MTCC 2546 assessed as growth inhibition after 24 hr by tube dilution method; format: functional; conditions: MTCC 2546, 24 h
Pseudomonas fluorescens [12] = assay: Antibacterial activity against Pseudomonas fluorescens MTCC 2421 assessed as growth inhibition at 1250 ug/mL after 48 hr by agar diffusion method; format: functional; conditions: MTCC 2421, 48 h, read-out: DIZ
Micrococcus luteus [13] = assay: Antibacterial activity against Micrococcus luteus MTCC 1538 assessed as growth inhibition at 1250 ug/mL after 48 hr by agar diffusion method; format: functional; conditions: MTCC 1538, 48 h, read-out: DIZ
Aspergillus niger [14] = assay: Antifungal activity against Aspergillus niger MTCC 2546 assessed as growth inhibition at 250 ug/mL after 48 hr by agar diffusion method; format: functional
Pseudomonas aeruginosa [15] = assay: Antibacterial activity against Pseudomonas aeruginosa MTCC 424 assessed as growth inhibition at 500 ug/mL after 48 hr by agar diffusion method; format: functional; conditions: MTCC 424, 48 h, read-out: DIZ
Penicillium chrysogenum [16] = assay: Antifungal activity against Penicillium chrysogenum MTCC 161 assessed as growth inhibition at 750 ug/mL after 48 hr by agar diffusion method; format: functional; conditions: MTCC 161, 48 h, read-out: DIZ
Escherichia coli [17] = assay: Antibacterial activity against Escherichia coli MTCC 1573 assessed as growth inhibition at 1000 ug/mL after 48 hr by agar diffusion method; format: functional; conditions: MTCC 1573, 48 h, read-out: DIZ
Escherichia coli [18] = assay: Antibacterial activity against Escherichia coli MTCC 1573 assessed as growth inhibition at 750 ug/mL after 48 hr by agar diffusion method; format: functional; conditions: MTCC 1573, 48 h, read-out: DIZ
Pseudomonas fluorescens [19] = assay: Antibacterial activity against Pseudomonas fluorescens MTCC 2421 assessed as growth inhibition at 1000 ug/mL after 48 hr by agar diffusion method; format: functional; conditions: MTCC 2421, 48 h, read-out: DIZ
Staphylococcus aureus [20] = assay: Antibacterial activity against Staphylococcus aureus MTCC 1430 assessed as growth inhibition after 24 hr by tube dilution method; format: functional; conditions: MTCC 1430, 24 h
Bacillus subtilis [21] = assay: Antibacterial activity against Bacillus subtilis MTCC 441 assessed as growth inhibition at 1250 ug/mL after 48 hr by agar diffusion method; format: functional; conditions: MTCC 441, 48 h, read-out: DIZ
Penicillium chrysogenum [22] = assay: Antifungal activity against Penicillium chrysogenum MTCC 161 assessed as growth inhibition after 24 hr by tube dilution method; format: functional; conditions: MTCC 161, 24 h
Escherichia coli [23] = assay: Antibacterial activity against Escherichia coli MTCC 1573 assessed as growth inhibition after 24 hr by tube dilution method; format: functional; conditions: MTCC 1573, 24 h
Pseudomonas aeruginosa [24] = assay: Antibacterial activity against Pseudomonas aeruginosa MTCC 424 assessed as growth inhibition at 250 ug/mL after 48 hr by agar diffusion method; format: functional; conditions: MTCC 424, 48 h, read-out: DIZ
Bacillus subtilis [25] = assay: Antibacterial activity against Bacillus subtilis MTCC 441 assessed as growth inhibition at 500 ug/mL after 48 hr by agar diffusion method; format: functional; conditions: MTCC 441, 48 h, read-out: DIZ
Bacillus subtilis [26] = assay: Antibacterial activity against Bacillus subtilis MTCC 441 assessed as growth inhibition at 250 ug/mL after 48 hr by agar diffusion method; format: functional; conditions: MTCC 441, 48 h, read-out: DIZ
Escherichia coli [27] = assay: Antibacterial activity against Escherichia coli MTCC 1573 assessed as growth inhibition at 500 ug/mL after 48 hr by agar diffusion method; format: functional; conditions: MTCC 1573, 48 h, read-out: DIZ
Pseudomonas fluorescens [28] = assay: Antibacterial activity against Pseudomonas fluorescens MTCC 2421 assessed as growth inhibition at 100 ug/mL after 48 hr by agar diffusion method; format: functional; conditions: MTCC 2421, 48 h, read-out: DIZ
Penicillium chrysogenum [29] = assay: Antifungal activity against Penicillium chrysogenum MTCC 161 assessed as growth inhibition at 500 ug/mL after 48 hr by agar diffusion method; format: functional; conditions: MTCC 161, 48 h, read-out: DIZ
Pseudomonas aeruginosa [30] = assay: Antibacterial activity against Pseudomonas aeruginosa MTCC 424 assessed as growth inhibition at 100 ug/mL after 48 hr by agar diffusion method; format: functional; conditions: MTCC 424, 48 h, read-out: DIZ
Penicillium chrysogenum [31] = assay: Antifungal activity against Penicillium chrysogenum MTCC 161 assessed as growth inhibition at 1250 ug/mL after 48 hr by agar diffusion method; format: functional; conditions: MTCC 161, 48 h, read-out: DIZ
Bacillus pumilus [32] = assay: Antibacterial activity against Bacillus pumilus MTCC 1456 assessed as growth inhibition at 100 ug/mL after 48 hr by agar diffusion method; format: functional; conditions: MTCC 1456, 48 h, read-out: DIZ
Penicillium chrysogenum [33] = assay: Antifungal activity against Penicillium chrysogenum MTCC 161 assessed as growth inhibition at 250 ug/mL after 48 hr by agar diffusion method; format: functional
Staphylococcus aureus [34] = assay: Antibacterial activity against Staphylococcus aureus MTCC 1430 assessed as growth inhibition at 1000 ug/mL after 48 hr by agar diffusion method; format: functional; conditions: MTCC 1430, 48 h, read-out: DIZ
Escherichia coli [35] = assay: Antibacterial activity against Escherichia coli MTCC 1573 assessed as growth inhibition at 1250 ug/mL after 48 hr by agar diffusion method; format: functional; conditions: MTCC 1573, 48 h, read-out: DIZ
Escherichia coli [36] = assay: Antibacterial activity against Escherichia coli MTCC 1573 assessed as growth inhibition at 250 ug/mL after 48 hr by agar diffusion method; format: functional; conditions: MTCC 1573, 48 h, read-out: DIZ
Pseudomonas aeruginosa [37] = assay: Antibacterial activity against Pseudomonas aeruginosa MTCC 424 assessed as growth inhibition at 750 ug/mL after 48 hr by agar diffusion method; format: functional; conditions: MTCC 424, 48 h, read-out: DIZ
Penicillium chrysogenum [38] = assay: Antifungal activity against Penicillium chrysogenum MTCC 161 assessed as growth inhibition at 100 ug/mL after 48 hr by agar diffusion method; format: functional, organism-based
Aspergillus niger [39] = assay: Antifungal activity against Aspergillus niger MTCC 2546 assessed as growth inhibition at 1250 ug/mL after 48 hr by agar diffusion method; format: functional; conditions: MTCC 2546, 48 h, read-out: DIZ

SMILES | MIC (Bacillus subtilis [1]) [µg/mL] | zone of inhibition at 1000 µg/mL (Bacillus subtilis [2]) [mm] | zone of inhibition at 500 µg/mL (Aspergillus niger [4]) [mm] | zone of inhibition at 750 µg/mL (Micrococcus luteus [5]) [mm] | zone of inhibition at 1000 µg/mL (Bacillus pumilus [6]) [mm] | zone of inhibition at 750 µg/mL (Aspergillus niger [7]) [mm] | zone of inhibition at 750 µg/mL (Pseudomonas fluorescens [8]) [mm] | growth inhibition (GI) (Aspergillus niger [9]) | zone of inhibition at 250 µg/mL (Bacillus pumilus [10]) [mm] | MIC (Aspergillus niger [11]) [µg/mL] | zone of inhibition at 1250 µg/mL (Pseudomonas fluorescens [12]) [mm] | zone of inhibition at 1250 µg/mL (Micrococcus luteus [13]) [mm] | growth inhibition (GI) (Aspergillus niger [14]) | zone of inhibition at 500 µg/mL (Pseudomonas aeruginosa [15]) [mm] | zone of inhibition at 750 µg/mL (Penicillium chrysogenum [16]) [mm] | zone of inhibition at 1000 µg/mL (Escherichia coli [17]) [mm] | zone of inhibition at 750 µg/mL (Escherichia coli [18]) [mm] | zone of inhibition at 1000 µg/mL (Pseudomonas fluorescens [19]) [mm] | MIC (Staphylococcus aureus [20]) [µg/mL] | zone of inhibition at 1250 µg/mL (Bacillus subtilis [21]) [mm] | further results
O=C1CSC(c2cccc3ccccc23)N1c1nnc2c3ccccc3nc-2s1 (stereo not drawn) | 40 (≈ 96.5 µM) | 17 | 8 | 11 | 20 | 10 | 16 | inactive | 8 | 250 (≈ 603 µM) | 22 | 16 | inactive | 13 | 10 | 15 | 13 | 19 | 200 (≈ 482 µM) | 20 | growth inhibition (GI) (Micrococcus luteus [3]): inactive; MIC (Penicillium chrysogenum [22]): 200 µg/mL (≈ 482 µM); MIC (Escherichia coli [23]): 50 µg/mL (≈ 121 µM); zone of inhibition at 250 µg/mL (Pseudomonas aeruginosa [24]): 10 mm; zone of inhibition at 500 µg/mL (Bacillus subtilis [25]): 13 mm; zone of inhibition at 250 µg/mL (Bacillus subtilis [26]): 10 mm; zone of inhibition at 500 µg/mL (Escherichia coli [27]): 12 mm; zone of inhibition at 100 µg/mL (Pseudomonas fluorescens [28]): 7 mm; zone of inhibition at 500 µg/mL (Penicillium chrysogenum [29]): 9 mm; zone of inhibition at 100 µg/mL (Pseudomonas aeruginosa [30]): 7 mm; zone of inhibition at 1250 µg/mL (Penicillium chrysogenum [31]): 15 mm; zone of inhibition at 100 µg/mL (Bacillus pumilus [32]): 6 mm; zone of inhibition at 250 µg/mL (Penicillium chrysogenum [33]; MTCC 161, 48 h, read-out: DIZ): 8 mm; zone of inhibition at 1000 µg/mL (Staphylococcus aureus [34]): 14 mm; zone of inhibition at 1250 µg/mL (Escherichia coli [35]): 18 mm; zone of inhibition at 250 µg/mL (Escherichia coli [36]): 10 mm; zone of inhibition at 750 µg/mL (Pseudomonas aeruginosa [37]): 15 mm; growth inhibition (GI) (Penicillium chrysogenum [38]): inactive; zone of inhibition at 1250 µg/mL (Aspergillus niger [39]): 19 mm
CC1SCC(=O)N1c1nnc2c3ccccc3nc-2s1 (stereo not drawn) | 30 (≈ 99.2 µM) | 20 | 8 | 14 | 22 | 11 | 17 | inactive | 9 | 250 (≈ 827 µM) | 24 | 19 | inactive | 12 | 12 | 18 | 15 | 21 | 250 (≈ 827 µM) | 22 | zone of inhibition at 100 µg/mL (Micrococcus luteus [3]; MTCC 1538, 48 h, read-out: DIZ): 8 mm; MIC (Penicillium chrysogenum [22]): 250 µg/mL (≈ 827 µM); MIC (Escherichia coli [23]): 40 µg/mL (≈ 132 µM); zone of inhibition at 250 µg/mL (Pseudomonas aeruginosa [24]): 11 mm; zone of inhibition at 500 µg/mL (Bacillus subtilis [25]): 15 mm; zone of inhibition at 250 µg/mL (Bacillus subtilis [26]): 13 mm; zone of inhibition at 500 µg/mL (Escherichia coli [27]): 13 mm; zone of inhibition at 100 µg/mL (Pseudomonas fluorescens [28]): 8 mm; zone of inhibition at 500 µg/mL (Penicillium chrysogenum [29]): 10 mm; zone of inhibition at 100 µg/mL (Pseudomonas aeruginosa [30]): 8 mm; zone of inhibition at 1250 µg/mL (Penicillium chrysogenum [31]): 17 mm; zone of inhibition at 100 µg/mL (Bacillus pumilus [32]): 7 mm; growth inhibition (GI) (Penicillium chrysogenum [33]): inactive; zone of inhibition at 1000 µg/mL (Staphylococcus aureus [34]): 15 mm; zone of inhibition at 1250 µg/mL (Escherichia coli [35]): 20 mm; zone of inhibition at 250 µg/mL (Escherichia coli [36]): 10 mm; zone of inhibition at 750 µg/mL (Pseudomonas aeruginosa [37]): 15 mm; growth inhibition (GI) (Penicillium chrysogenum [38]): inactive; zone of inhibition at 1250 µg/mL (Aspergillus niger [39]): 17 mm
